Assay results as given in US20220339135A1, “COMPOSITIONS AND METHODS FOR MODULATING AN INFLAMMATORY RESPONSE” (Enzychem Lifesciences Corporation, priority 2019, published 2022).

What was measured:
[1] = system: intracellular calcium in dHL-60 cells; assay: Fluo-4 calcium assay; type: cell-based, human
Procedure: Human leukemia line (HL-60) cells were differentiated (dHL-60) to neutrophil-like cells in the culture medium with the addition of 1.3% DMSO (Sigma) for 5 days in a humidified atmosphere at 37° C. without changing the medium. dHL-60 cells (2×10^5 cells/mL) were loaded with 5 μM fluo-4 AM for 45 minutes and washed three times with warmed modified (37° C.) HBSS buffer (137.93 mM NaCl, 5.33 mM KCl, 2 mM CaCl2), 1 mM MgSO4, 2.38 mM HEPES, 5.5 mM glucose, pH to 7.4). The cells were seeded on black-walled 96-well plates and then treated with vehicle (0.1% DMSO), ionomycin (5 μM; positive control) or PLAG (100 μg/mL) just before measurement. Baseline fluorescence was measured before treatment, and fluorescence was read every 20 s for 700 s using an excitation wavelength of 494 nm, an emission wavelength of 516 nm in a FlexStation 3 microplate reader (Molecular Devices). Fluorescence values were reported as F/Fo according to the calculation: [ΔF=(494 nm)f/(516 nm)f−(494 nm)0/(516 nm)0]. For studies in 0 mM external calcium, the cells were loaded as mentioned earlier. After being loaded, the cells were washed four times with calcium-free HBSS. The remainder of the study was carried out in calcium-free HBSS.
(§1) HL-60 cells were differentiated (dHL-60) to neutrophil-like cells in the culture medium with the addition of 1.3% DMSO (Sigma) for 5 days in a humidified atmosphere at 37° C. without changing the medium. dHL-60 cells (2×10^5 cells/mL) were loaded with 5 μM fluo-4 AM for 45 minutes and washed three times with warmed modified (37° C.) HBSS buffer (137.93 mM NaCl, 5.33 mM KCl, 2 mM CaCl2, 1 mM MgSO4, 2.38 mM HEPES, 5.5 mM glucose, pH to 7.4). […] Baseline fluorescence was measured before treatment, and fluorescence was read every 20 seconds for 700 seconds using an excitation wavelength of 494 nm, an emission wavelength of 516 nm in a FlexStation 3 microplate reader (Molecular Devices). Fluorescence values were reported as F/Fo according to the calculation: [ΔF=(494 nm)f/(516 nm)f−(494 nm)0/(516 nm)0]. […]
as §1, with “s” for “seconds”, “Devices).” for “Devices). Fluorescence values were reported as F/Fo according to the calculation: [ΔF=(494 nm)f/(516 nm)f−(494 nm)0/(516 nm)0].”

[2] = system: intracellular ROS in BMDMs and THP-1 cells; assay: Gemcitabine-induced intracellular ROS measurement; type: cell-based; conditions: gemcitabine 10 μg/mL 3 h, dose-dependent
Procedure: A total of 1×10^6 BMDMs and THP-1 were seeded, cultured, and subsequently exposed to various concentrations of PLAG with gemcitabine (10 μg/mL) for 3 h. The cells were then incubated with the ROS-sensitive probe CM-H2DCFDA (Invitrogen™) for 30 min at 37° C. in the dark. After incubation, the cells were washed 3 times with PBS and immediately analyzed using FACS verse (BD biosciences) with an excitation/emission peak at 495/527 nm. A total of 10,000 cells were counted in each determination, and results presented are means±S.E. of three independent experiments. Intracellular ROS production was also measured with a confocal laser scanning microscope (Zeiss LSM 800, Oberkochen, Germany). After incubating CM-H2DCFDA as above, the cells were fixed with 4% paraformaldehyde for 30 min and washed 3 times with PBS before photographing. The excitation and emission wavelengths were identical as described above, and a minimum of 5 random fields was captured for each culture.

[3] = system: intracellular ROS in Raw264.7 cells; assay: LPS-induced intracellular ROS production (CM-H2DCFDA); type: cell-based; conditions: LPS/PLAG treatment
Procedure: Raw264.7 cells were divided into two groups: 1) LPS treated group and 2) LPS/PLAG treated group. For LPS treated group, cells were stimulated with LPS (100 ng/ml) for 0, 15, 30, 45, 60, 75, 90, 105, 120 minutes. For LPS/PLAG treatment, cells were pre-incubated with PLAG (100 ng/ml) for 1 hour and then stimulated with LPS (100 ng/ml) for 0, 15, 30, 45, 60, 75, 90, 105, 120 minutes. To detect intracellular ROS, cells were treated with […]CM-H2DCFDA (Invitrogen, Carlsbad, Calif., USA) for 30 minutes before LPS treatment for LPS treated group and before PLAG treatment for LPS/PLAG treated group. For confocal microscopy analysis, cells were washed with PBS and mounted in DAPI-containing fluorescence microscopy mounting medium (Invitrogen). Samples were analyzed with a laser scanning confocal microscope (Carl Zeiss, Oberkochen, Germany).
Raw264.7 cells were divided into two groups: 1) LPS treated group and 2) LPS/PLAG treated group. For the LPS treated group, cells were treated with 100 μg/ml of DMSO (as solvent control) for 1 hour and treated with LPS (100 ng/ml) for 15, 30, 60, and 120 minutes. For LPS/PLAG treated group, cells were treated with PLAG (100 μg/ml) for 1 hour and treated with LPS (100 ng/ml) for 15, 30, 60, and 120 minutes. […] These were analyzed by confocal microscopy. […]

CCCCC/C=C\C/C=C\CCCCCCCC(=O)OC(COC(C)=O)COC(=O)CCCCCCCCCCCCCCC (racemic) [PLAG, 1-palmitoyl-2-linoleoyl-3-acetylglycerol]
cytosolic calcium of dHL-60 cells ([1]; PLAG 100 μg/mL, ionomycin 5 μM): increased | intracellular calcium levels, co-treatment with imiquimod ([1]; vs imiquimod alone, extracellular calcium-free and containing condition): significantly increased | gemcitabine-induced intracellular ROS production [2]: effectively reduced | ROS production initiated [3]: 15 min | return to homeostatic levels of intracellular ROS [3]: 60 min
